Assay results published in PubChem BioAssay AID1259408 (Genetic Toxicology Data Bank (GENE-TOX), 2018).
Activity calls are given as the source filed them. The rule behind the calls is not given here.

Test system: GENE-TOX genotoxicity assays, various organisms and cells
Assay: GENE-TOX mutagenicity studies
Conditions: for call: Assay Type: In vivo carcinogenicity studies
[1] = Species/Cell Type: Bacillus subtilis (H17 vs M45), Assay Type: Rec-assay, spot test, DNA effects (bacterial DNA repair), Assay Code: REWT, Evaluation Type: Evaluation A (Pre-1980)
[2] = Species/Cell Type: Drosophila melanogaster, Assay Type: Sex-linked recessive lethal gene mutation, Assay Code: SRLT, Evaluation Type: Evaluation A (Pre-1980)
[3] = Species/Cell Type: Glycine max (soybean), Assay Type: Gene mutation, Assay Code: GLM-, Evaluation Type: Evaluation A (Pre-1980)
[4] = Species/Cell Type: Mammalian polychromatic erythrocytes, Assay Type: Micronucleus test, chromosome aberrations, Assay Code: MNT+, Evaluation Type: Evaluation B (Post-1980)
[5] = Species/Cell Type: Nonhuman, Assay Code: CCG+, Evaluation Type: Evaluation A (Pre-1980)
[6] = Species/Cell Type: Salmonella typhimurium (one or more of the five standard strains: TA98, TA100, TA1535, TA1537, and TA1538), Assay Type: Histidine reverse gene mutation, Ames assay, Assay Code: SAL+*, Activation: With metabolic activation, Evaluation Type: Evaluation A (Pre-1980)
[7] = Species/Cell Type: Salmonella typhimurium (one or more of the five standard strains: TA98, TA100, TA1535, TA1537, and TA1538), Assay Type: Histidine reverse gene mutation, Ames assay, Assay Code: SALT, Evaluation Type: Evaluation A (Pre-1980)
[8] = Species/Cell Type: Mouse, Sex: Male, Assay Type: Sperm morphology, Assay Code: SPI-, Evaluation Type: Evaluation A (Pre-1980)
[9] = Species/Cell Type: Escherichia coli polA (W3119 vs P3478), Assay Type: Rec-assay, DNA effects (bacterial DNA repair), Assay Code: RE1T, Evaluation Type: Evaluation A (Pre-1980)
[10] = Species/Cell Type: Salmonella typhimurium (one or more of the five standard strains: TA98, TA100, TA1535, TA1537, and TA1538), Assay Type: Histidine reverse gene mutation, Ames assay, Assay Code: SAL-, Evaluation Type: Evaluation A (Pre-1980)
[11] = Species/Cell Type: Salmonella typhimurium (one or more of the five standard strains: TA98, TA100, TA1535, TA1537, and TA1538), Assay Type: Histidine reverse gene mutation, Ames assay, Assay Code: SAL+, Evaluation Type: Evaluation A (Pre-1980)

O=C(Cl)c1ccccc1
mutagenic call [1]: no conclusion

C1CC[C@H]2O[C@H]2C1
mutagenic call (Species/Cell Type: Nonhuman, Assay Type: Sister-chromatid exchange (SCE) in vitro, Assay Code: SC2+, Evaluation Type: Evaluation B (Post-1980)): active; positive | mutagenic call (Species/Cell Type: Nonhuman, Assay Type: Sister-chromatid exchange (SCE) in vitro, Assay Code: SC2T, Evaluation Type: Evaluation A (Pre-1980)): no conclusion

Nc1ccn([C@@H]2O[C@H](CO)[C@@H](O)C2O)c(=O)n1 (stereo partly drawn)
mutagenic call (Species/Cell Type: Chinese hamster lung (V79) cells, Assay Type: Forward gene mutation at the HPRT or ouabain locus, Assay Code: V79+, Evaluation Type: Evaluation A (Pre-1980)): active; positive | mutagenic call [2]: no conclusion | mutagenic call (Species/Cell Type: Ehrlich ascites tumor (mouse) cells, Assay Type: Chromosome aberrations, DNA effects, host-mediated assay, Assay Code: HMH+, Evaluation Type: Evaluation A (Pre-1980)): active; positive | mutagenic call [3]: inactive; negative | mutagenic call (Species/Cell Type: Human lymphocytes or leukocytes, Assay Type: Chromosome aberrations in vitro, Assay Code: CY7+, Evaluation Type: Evaluation A (Pre-1980)): active; positive | mutagenic call (Species/Cell Type: Human lymphocytes, Assay Type: Sister-chromatid exchange (SCE) in vitro, Assay Code: SCL+, Evaluation Type: Evaluation B (Post-1980)): active; positive | mutagenic call (Species/Cell Type: Human lymphocytes, Assay Type: Sister-chromatid exchange (SCE) in vitro, Assay Code: SCLT, Evaluation Type: Evaluation A (Pre-1980)): no conclusion | mutagenic call (Species/Cell Type: Human, Assay Type: Sister-chromatid exchange (SCE) in vitro, Assay Code: SC1+D, Dose Response: With dose response, Evaluation Type: Evaluation B (Post-1980)): active; positive | mutagenic call (Species/Cell Type: Human, Assay Type: Sister-chromatid exchange (SCE) in vitro, Assay Code: SC1T, Evaluation Type: Evaluation A (Pre-1980)): no conclusion | mutagenic call [4]: active; positive | mutagenic call (Species/Cell Type: Mouse (C3H/10T1/2) cells, Assay Type: Cell transformation, Assay Code: CTH+, Evaluation Type: Evaluation A (Pre-1980)): active; positive | mutagenic call (Species/Cell Type: Nonhuman, Assay Type: Sister-chromatid exchange (SCE) in vitro, Assay Code: SC2+D, Dose Response: With dose response, Evaluation Type: Evaluation B (Post-1980)): active; positive | mutagenic call (Species/Cell Type: Nonhuman, Assay Type: Sister-chromatid exchange (SCE) in vivo, Assay Code: SC3T, Evaluation Type: Evaluation A (Pre-1980)): no conclusion | mutagenic call (Species/Cell Type: Syrian hamster embryo (SA7/SHE) cells, Assay Type: Cell transformation, viral enhanced, Assay Code: CT7+, Evaluation Type: Evaluation A (Pre-1980)): active; positive | mutagenic call (Species/Cell Type: Syrian hamster embryo (SHE) cells, Assay Type: Cell transformation, clonal assay, Assay Code: CTC+, Evaluation Type: Evaluation A (Pre-1980)): active; positive

CC(C)[N+](=O)[O-]
mutagenic call (Species/Cell Type: Mammalian polychromatic erythrocytes, Assay Type: Micronucleus test, chromosome aberrations, Assay Code: MNTT, Evaluation Type: Evaluation A (Pre-1980)): no conclusion | call [5]: active; positive

Nc1nc2c(ncn2[C@H]2C[C@H](O)[C@@H](CO)O2)c(=O)[nH]1
mutagenic call [3]: inactive; negative

C1COCCO1
call [5]: active; positive | mutagenic call (Species/Cell Type: Syrian hamster embryo (SA7/SHE) cells, Assay Type: Cell transformation, viral enhanced, Assay Code: CT7-, Evaluation Type: Evaluation A (Pre-1980)): inactive; negative

CCCCN(CCC(C)=O)N=O
mutagenic call [6]: active; positive

CCN(C)N=O
call [5]: active; positive | mutagenic call [7]: no conclusion

Cc1ccc(Cl)cc1N
mutagenic call [8]: inactive; negative | call (Species/Cell Type: Nonhuman, Assay Code: CCG+L, Evaluation Type: Evaluation A (Pre-1980)): active; positive

CCOc1ccccc1C(N)=O
mutagenic call (Species/Cell Type: Human, Assay Type: Sister-chromatid exchange (SCE) in vitro, Assay Code: SC1+, Evaluation Type: Evaluation B (Post-1980)): active; positive

Nc1nc(-c2ccc([N+](=O)[O-])[nH]2)cs1
mutagenic call [7]: no conclusion

BrCC1CO1 (stereo not drawn)
mutagenic call (Species/Cell Type: Neurospora crassa, Assay Type: Reverse gene mutation, Assay Code: NER+, Evaluation Type: Evaluation A (Pre-1980)): active; positive

Cn1c([N+](=O)[O-])cnc1/C=N/N1CC(CN2CCOCC2)OC1=O (stereo not drawn)
mutagenic call [2]: no conclusion | mutagenic call (Species/Cell Type: Mouse, Sex: Female, Assay Type: Spot test, gene mutation, Assay Code: MST+, Evaluation Type: Evaluation A (Pre-1980)): active; positive | mutagenic call (Species/Cell Type: Saccharomyces cerevisiae, Assay Type: Mitotic recombination or gene conversion, Assay Code: YEC-, Evaluation Type: Evaluation A (Pre-1980)): inactive; negative

O=C(O)O
mutagenic call (Species/Cell Type: Bacillus subtilis (H17 vs M45), Assay Type: Rec-assay, spot test, DNA effects (bacterial DNA repair), Assay Code: REW+, Evaluation Type: Evaluation A (Pre-1980)): active; positive | mutagenic call [9]: no conclusion

OC1CCCCC1
mutagenic call (Species/Cell Type: Allium cepa, Assay Type: Chromosome aberrations, Assay Code: ALC-, Evaluation Type: Evaluation A (Pre-1980)): inactive; negative

CNC(=O)Oc1cccc2c1OC(C)(C)C2
mutagenic call [1]: no conclusion | mutagenic call (Species/Cell Type: Drosophila melanogaster, Assay Type: Sex-linked recessive lethal gene mutation, Assay Code: SRL-, Evaluation Type: Evaluation A (Pre-1980)): inactive; negative | mutagenic call (Species/Cell Type: Escherichia coli WP2 UVRA, Assay Type: Tryptophan reverse gene mutation, Assay Code: WPU-*, Activation: With metabolic activation, Evaluation Type: Evaluation A (Pre-1980)): inactive; negative | mutagenic call [9]: no conclusion | mutagenic call (Species/Cell Type: Hordeum vulgare (barley), Assay Type: Chromosome aberrations, Assay Code: HOC+D, Dose Response: With dose response, Evaluation Type: Evaluation A (Pre-1980)): active; positive | mutagenic call (Species/Cell Type: Human diploid fibroblasts, Assay Type: Unscheduled DNA synthesis (UDS) in vitro, DNA effects, Assay Code: UDH-, Evaluation Type: Evaluation A (Pre-1980)): inactive; negative | mutagenic call (Species/Cell Type: Saccharomyces cerevisiae, Assay Type: Mitotic recombination or gene conversion, Assay Code: YEH-, Evaluation Type: Evaluation A (Pre-1980)): inactive; negative | mutagenic call [10]: inactive; negative

OC[C@@H](O)[C@@H](O)[C@H](O)[C@@H](O)CO
mutagenic call (Species/Cell Type: Drosophila melanogaster, Assay Type: Aneuploidy, whole sex chromosome loss, chromosome aberrations, Assay Code: DAC-M, Evaluation Type: Evaluation A (Pre-1980)): inactive; negative | mutagenic call [2]: no conclusion | mutagenic call (Species/Cell Type: Rodents, Sex: Male, Assay Type: Dominant lethal test, Assay Code: DLT-, Evaluation Type: Evaluation A (Pre-1980)): inactive; negative

NNc1ccccc1
mutagenic call [4]: active; positive

O=C(O)CSc1ccc2c3c(cccc13)C(=O)c1ccccc1-2
mutagenic call [11]: active; positive

O=P(OCCCl)(OCCCl)OCCCl
mutagenic call [4]: active; positive | mutagenic call [10]: inactive; negative

CC(=O)OCC[C@H](C=O)c1c(O)cc2c(c1O)C(=O)c1c(O)cc(O)cc1C2=O
mutagenic call [6]: active; positive

CN1CCN(c2ccc([N+](=O)[O-])c3no[n+]([O-])c23)CC1
mutagenic call [11]: active; positive

C1=Cc2c(ccc3c2ccc2ccccc23)C1
mutagenic call [6]: active; positive

COc1nn(CSP(=S)(OC)OC)c(=O)s1
mutagenic call (Species/Cell Type: Nonhuman, Assay Type: Sister-chromatid exchange (SCE) in vitro, Assay Code: SC2+D*, Activation: With metabolic activation, Dose Response: With dose response, Evaluation Type: Evaluation B (Post-1980)): active; positive

S=C(NC1CCCCC1)NC1CCCCC1
mutagenic call (Species/Cell Type: Fischer rat embryo (RLV/1706) cells, Assay Type: Cell transformation, viral enhanced, Assay Code: CTR+, Evaluation Type: Evaluation A (Pre-1980)): active; positive

Nc1cccc(Cl)c1
mutagenic call [8]: inactive; negative

CC[C@@]1(O)C[C@H](O[C@H]2C[C@H](N(C)C)[C@H](O[C@H]3C[C@H](O)[C@H](O[C@H]4CCC(=O)[C@H](C)O4)[C@H](C)O3)[C@H](C)O2)c2c(cc3c(c2O)C(=O)c2c(O)cccc2C3=O)[C@H]1C(=O)OC
mutagenic call [7]: no conclusion

O=C1c2ccccc2C(=O)N1CC1CO1 (stereo not drawn)
mutagenic call (Species/Cell Type: Chinese hamster ovary (CHO) cells, Assay Type: Forward gene mutation at the HPRT locus, Assay Code: CHO+, Evaluation Type: Evaluation B (Post-1980)): active; positive

CN(N=O)C1=Nc2ccc(Cl)cc2C(c2ccccc2)=[N+]([O-])C1
mutagenic call (Species/Cell Type: Saccharomyces cerevisiae, Assay Type: Mitotic recombination or gene conversion, Assay Code: YEC+*, Activation: With metabolic activation, Evaluation Type: Evaluation A (Pre-1980)): active; positive | mutagenic call (Species/Cell Type: Salmonella typhimurium, Assay Type: Forward and reverse gene mutation, host-mediated assay, Assay Code: HMA+, Evaluation Type: Evaluation A (Pre-1980)): active; positive

NC(=O)C(=Cc1ccc([N+](=O)[O-])o1)c1ccccc1
mutagenic call [11]: active; positive
